Measured values: US20240317718A1, “SUBSTITUTED HETEROCYCLIC COMPOUNDS” (BRISTOL-MYERS SQUIBB COMPANY, priority 2021, published 2024)

Legend:
in vitro = conditions: human, Caco-2, pH 7.4
[1] = tested on: IFNα-induced pSTAT5 (Tyk2-mediated signal transduction); assay: IFNα-induced STAT phosphorylation in human whole blood; format: cell-based; conditions: 1 h incubation with compound, 1000 U/mL IFNα A/D for 15 min, CD3 positive population, read-out: Human Whole blood IFNa pSTAT5 IC50
Description: IFNα-Induced STAT Phosphorylation in Human Whole Blood
After an hour long incubation with compound, human whole blood (drawn with ACD-A as anticoagulant) was stimulated with 1000 U/mL recombinant human IFNα A/D (R&D Systems 11200-2) for 15 min. The stimulation was stopped by adding Fix/Lyse buffer (BD 558049). Cells were stained with a CD3 FITC antibody (BD 555916), washed, and permeabilized on ice using Perm III buffer (BD 558050). Cells were then stained with an Alexa-Fluor 647 pSTAT5 (pY694) antibody (BD 612599) for 60 min prior to analysis on the iQue Plus. The amount of pSTAT5 expression was quantitated by median fluorescence intensity after gating on the CD3 positive population.

Structure (SMILES) | Papp A→B at 2 h, 3 μM (in vitro) | efflux ratio at 2 h, 3 μM (in vitro) | IC50 [1]
[2H]C([2H])([2H])NC(=O)c1nnc(NC(=O)C2CC2)cc1Nc1cccc(-c2cnsc2)c1OC [Example 36, 6-cyclopropaneamido-4-{[2-methoxy-3-(1,2-thiazol-4-yl)phenyl]amino}-N-(^2H3)methylpyridazine-3-carboxamide] | 20.3 ×10⁻⁶ cm/s | 0.9 | 225 nM
[2H]C([2H])([2H])NC(=O)c1nnc(NC(=O)C2CC2)cc1Nc1nccc(-c2cnsc2)c1OC [Example 38, 6-cyclopropaneamido-4-{[3-methoxy-4-(1,2-thiazol-4-yl)pyridin-2-yl]amino}-N-(^2H3)methylpyridazine-3-carboxamide] | 59.5 ×10⁻⁶ cm/s | 0.5 | 381 nM
[2H]C([2H])([2H])NC(=O)c1nnc(NC(=O)C2CC2)cc1Nc1cccc(-c2cnc(C)cn2)c1OC [Example 23, 6-cyclopropaneamido-4-{[2-methoxy-3-(5-methylpyrazin-2-yl)phenyl]amino}-N-(^2H3)methylpyridazine-3-carboxamide] | 17.4 ×10⁻⁶ cm/s | 1.4 | 243 nM
[2H]C([2H])([2H])NC(=O)c1nnc(NC(=O)C2CC2)cc1Nc1nccc(-c2cnc(C(C)(C)O)cn2)c1OC [Example 20, 6-(cyclopropanecarboxamido)-4-((4-(5-(2-hydroxypropan-2-yl)pyrazin-2-yl)-3-methoxypyridin-2-yl)amino)-N-(methyl-d3)pyridazine-3-carboxamide] | 18.8 ×10⁻⁶ cm/s | 2.9 | 148 nM
[2H]C([2H])([2H])NC(=O)c1nnc(NC(=O)C2CC2)cc1Nc1nccc(-c2nccs2)c1OC [Example 33, 6-cyclopropaneamido-4-{[3-methoxy-4-(1,3-thiazol-2-yl)pyridin-2-yl]amino}-N-(^2H3)methylpyridazine-3-carboxamide] | 38.3 ×10⁻⁶ cm/s | 0.4 | 207 nM
[2H]C([2H])([2H])NC(=O)c1nnc(NC(=O)C2CC2)cc1Nc1ccc(F)c(-c2cnn(C)c2)c1OC [Example 26, 6-cyclopropaneamido-4-{[4-fluoro-2-methoxy-3-(1-methyl-1H-pyrazol-4-yl)phenyl]amino}-N-(^2H3)methylpyridazine-3-carboxamide] | 30 ×10⁻⁶ cm/s | 1 | 201 nM
[2H]C([2H])([2H])NC(=O)c1nnc(NC(=O)C2CC2)cc1Nc1nccc(-c2cn(C)nc2C)c1OC [Example 31, 6-cyclopropaneamido-4-{[4-(1,3-dimethyl-1H-pyrazol-4-yl)-3-methoxypyridin-2-yl]amino}-N-(^2H3)methylpyridazine-3-carboxamide] | 39.3 ×10⁻⁶ cm/s | 1 | 289 nM
[2H]C([2H])([2H])NC(=O)c1nnc(NC(=O)C2CC2)cc1Nc1cccc(-c2nc(C)oc2C)c1OC [Example 18, 6-cyclopropaneamido-4-{[3-(2,5-dimethyl-1,3-oxazol-4-yl)-2-methoxyphenyl]amino}-N-(^2H3)methylpyridazine-3-carboxamide] | 25.9 ×10⁻⁶ cm/s | 0.7 | 152 nM
[2H]C([2H])([2H])NC(=O)c1nnc(NC(=O)C2CC2)cc1Nc1cccc(-c2cnc(OC)cn2)c1OC [Example 22, 6-cyclopropaneamido-4-{[2-methoxy-3-(5-methoxypyrazin-2-yl)phenyl]amino}-N-(^2H3)methylpyridazine-3-carboxamide] | 32.3 ×10⁻⁶ cm/s | 0.6 | 410 nM
[2H]C([2H])([2H])NC(=O)c1nnc(NC(=O)C2CC2)cc1Nc1cccc(-c2cocn2)c1OC [Example 6, 6-(cyclopropanecarboxamido)-4-((2-methoxy-3-(oxazol-4-yl)phenyl)amino)-N-(methyl-d3)pyridazine-3-carboxamide] | 78.5 ×10⁻⁶ cm/s | 0.5 | 42 nM
[2H]C([2H])([2H])NC(=O)c1nnc(NC(=O)C2CC2)cc1Nc1cccc(-c2ccc(C(F)F)cn2)c1OC [Example 7, 6-(cyclopropanecarboxamido)-4-((3-(5-(difluoromethyl)pyridin-2-yl)-2-methoxyphenyl)amino)-N-(methyl-d3)pyridazine-3-carboxamide] | 31.3 ×10⁻⁶ cm/s | 0.6 | 431 nM
[2H]C([2H])([2H])NC(=O)c1nnc(NC(=O)C2CC2)cc1Nc1cccc(-c2ccc(C(C)(C)C#N)cn2)c1OC [Example 24, 4-({3-[5-(1-cyano-1-methylethyl)pyridin-2-yl]-2-methoxyphenyl}amino)-6-cyclopropaneamido-N-(^2H3)methylpyridazine-3-carboxamide] | 14.8 ×10⁻⁶ cm/s | 1.2 | 426 nM
[2H]C([2H])([2H])NC(=O)c1nnc(NC(=O)C2CC2)cc1Nc1nccc(-c2cnn(C)c2C)c1OC [Example 32, 6-cyclopropaneamido-4-{[4-(1,5-dimethyl-1H-pyrazol-4-yl)-3-methoxypyridin-2-yl]amino}-N-(^2H3)methylpyridazine-3-carboxamide] | 31.5 ×10⁻⁶ cm/s | 0.9 | 437 nM
[2H]C([2H])([2H])NC(=O)c1nnc(NC(=O)C2CC2)cc1Nc1cc(C)cc(-c2cnc(C3(O)CCC3)cn2)c1OC [Example 14, 6-(cyclopropanecarboxamido)-4-((3-(5-(1-hydroxycyclobutyl)pyrazin-2-yl)-2-methoxy-5-methylphenyl)amino)-N-(methyl-d3)pyridazine-3-carboxamide] | 37.8 ×10⁻⁶ cm/s | 0.9 | 148 nM
[2H]C([2H])([2H])NC(=O)c1nnc(NC(=O)C2CC2)cc1Nc1nccc(-c2cnn(C3CC3)c2)c1OC [Example 30, 6-cyclopropaneamido-4-{[4-(1-cyclopropyl-1H-pyrazol-4-yl)-3-methoxypyridin-2-yl]amino}-N-(^2H3)methylpyridazine-3-carboxamide] | 22.7 ×10⁻⁶ cm/s | 0.5 | 193 nM
[2H]C([2H])([2H])NC(=O)c1nnc(NC(=O)[C@@H]2C[C@H]2C)cc1Nc1nccc(-c2nc(C)ns2)c1OC [Example 40, 4-{[3-methoxy-4-(3-methyl-1,2,4-thiadiazol-5-yl)pyridin-2-yl]amino}-N-(^2H3)methyl-6-[(1R,2R)-2-methylcyclopropaneamido]pyridazine-3-carboxamide] | 12.6 ×10⁻⁶ cm/s | 0.3 | 179 nM
[2H]C([2H])([2H])NC(=O)c1nnc(NC(=O)C2CC2)cc1Nc1nccc(-c2cnn(C(F)F)c2)c1OC [Example 42, 6-cyclopropaneamido-4-({4-[1-(difluoromethyl)-1H-pyrazol-4-yl]-3-methoxypyridin-2-yl}amino)-N-(^2H3)methylpyridazine-3-carboxamide] | 26.6 ×10⁻⁶ cm/s | 0.4 | 193 nM
[2H]C([2H])([2H])NC(=O)c1nnc(NC(=O)C2CC2)cc1Nc1cccc(-c2noc(COC(C)C)n2)c1OC [Example 2, 6-(cyclopropanecarboxamido)-4-((3-(5-(isopropoxymethyl)-1,2,4-oxadiazol-3-yl)-2-methoxyphenyl)amino)-N-(methyl-d3)pyridazine-3-carboxamide] | 66.1 ×10⁻⁶ cm/s | 0.3 | 13 nM
